Test: Residual parent lipid in mouse liver at 24 h (hEPO study)
Format: in vivo
Settings: CD-1 mice

## CCCCCC(CCCCC)CCOC(=O)CCCCCCCN(CCO)CCCCCCCC(=O)OCCC(CCCCC)CCCCC [compound 25]
  Parent Lipid Remaining (nmol/g liver tissue) at 24 h: 0.1 0.04 nmol/g liver tissue

Source: patent publication US20240216288A1, “LIPID NANOPARTICLES CONTAINING POLYNUCLEOTIDES ENCODING PROPIONYL-COA CARBOXYLASE ALPHA AND BETA SUBUNITS AND USES THEREOF” (ModernaTX, Inc., priority 2021, published 2024)
